Results on 2 compounds are retold here after paper PMC10285291, “The impact of CYP2C19 genotype on phenoconversion by concomitant medication” (Frontiers in Pharmacology, 2023).

Molecules are shown by their SMILES.

The target in data set [1] is T1, CYP2C19 (Homo sapiens, UniProt P33261). Put plainly: S-mephenytoin […]'-hydroxylation inhibition in individual human liver microsomes at […] fluvoxamine, LC-MS/MS. The data set is classed as cell-based. Also noted: human liver microsomes.
For data set [2], the target named is T1, CYP2C19. As to the kind of experiment: in vitro. Particulars: microsomes.

T1 sequence (P33261 whole entry): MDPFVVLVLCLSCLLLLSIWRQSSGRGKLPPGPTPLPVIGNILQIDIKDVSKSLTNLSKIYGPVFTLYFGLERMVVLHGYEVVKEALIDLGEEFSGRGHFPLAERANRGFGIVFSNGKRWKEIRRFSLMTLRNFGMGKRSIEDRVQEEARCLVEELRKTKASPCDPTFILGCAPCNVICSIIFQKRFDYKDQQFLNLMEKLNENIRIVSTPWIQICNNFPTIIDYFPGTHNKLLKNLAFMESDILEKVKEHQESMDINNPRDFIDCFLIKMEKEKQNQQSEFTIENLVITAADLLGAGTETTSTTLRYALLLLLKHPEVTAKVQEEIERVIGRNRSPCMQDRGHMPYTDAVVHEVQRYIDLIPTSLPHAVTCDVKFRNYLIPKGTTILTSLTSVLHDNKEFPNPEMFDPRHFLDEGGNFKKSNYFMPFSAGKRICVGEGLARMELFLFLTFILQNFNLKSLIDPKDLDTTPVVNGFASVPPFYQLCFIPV

On to `COCCCC/C(=N\OCCN)c1ccc(C(F)(F)F)cc1` [fluvoxamine], for which the inhibition (usually the drop in the measured response relative to a control, in per cent) at 1 µM against CYP2C19 [1] is 85%.

`COc1ccc2[nH]c([S+]([O-])Cc3ncc(C)c(OC)c3C)nc2c1` (centres unmarked) [omeprazole] returned a KI (inactivation) at CYP2C19 [2] of 4.47 ± 1.8 µM.
